Active and inactive are the calls of the source. No cut-off for these calls is given here.
What was measured:
[1] = system: Escherichia coli; assay: Antibacterial activity against Escherichia coli MG1655 assessed as inhibition of bacterial growth incubated for 20 hrs by CLSI broth microdilution method; type: functional
[2] = system: Staphylococcus aureus; assay: Antibacterial activity against Staphylococcus aureus ATCC 25923 assessed as inhibition of bacterial growth incubated for 20 hrs by CLSI broth microdilution method; type: functional
[3] = system: Bacillus subtilis; assay: Antibacterial activity against Bacillus subtilis 168 assessed as inhibition of bacterial growth incubated for 20 hrs by CLSI broth microdilution method; type: functional
[4] = Cytotoxicity against mouse 3T3-L1 cells assessed as cell viability at 25 ug/ml measured after 24 to 72 hrs by MTT assay relative to control; type: toxicity, cell-based; conditions: at 25 µg/mL, time 24-72 hrs, read-out: Activity
[5] = system: Vero; assay: (§1) Cytotoxicity against African green monkey Vero cells assessed as inhibition of cell growth at 50 ug/ml; type: toxicity, cell-based; conditions: chlorocebus sabaeus, vero; dose 50 µg/ml
[6] = system: Staphylococcus aureus; assay: Bactericidal activity against Staphylococcus aureus ATCC 25923 at 4 ug/ml incubated for 20 hrs in CAMHB followed by culturing onto CAMHA for 48 hrs by colony counting analysis; type: functional, organism-based; conditions: dose 4.0 µg/ml, time 68.0 hrs
[7] = system: Bacillus subtilis; assay: Bactericidal activity against Bacillus subtilis 168 at 4 ug/ml incubated for 20 hrs in CAMHB followed by culturing onto CAMHA for 48 hrs by colony counting analysis; type: functional, organism-based; conditions: dose 4.0 µg/ml, time 68.0 hrs
[8] = system: 3T3-L1; assay: Cytotoxicity against mouse 3T3-L1 cells assessed as reduction in cell viability at 12.5 ug/ml measured after 24 hrs by MTT assay; type: toxicity, cell-based; conditions: 3t3-l1, 24 h, dose 12.5 µg/ml
[9] = system: Mycobacterium tuberculosis; assay: Antibacterial activity against Mycobacterium tuberculosis H37Rv assessed as inhibition of bacterial growth; type: functional
[10] = system: Streptococcus pneumoniae; assay: Antibacterial activity against Streptococcus pneumoniae assessed as inhibition of bacterial growth incubated for 20 hrs by CLSI broth microdilution method; type: functional
[11] = as §1; type: toxicity, cell-based; conditions: chlorocebus sabaeus, Vero cells, at 50 µg/mL
[12] = system: Mycobacterium tuberculosis; assay: Antibacterial activity against Mycobacterium tuberculosis H37Rv assessed as inhibition of bacterial growth at 20 uM; type: functional
[13] = system: Acinetobacter baumannii; assay: Antibacterial activity against Acinetobacter baumannii assessed as inhibition of bacterial growth incubated for 20 hrs by CLSI broth microdilution method; type: functional
[14] = system: Bacillus subtilis; assay: Induction of phenotypic changes in Bacillus subtilis 168 assessed as bacterial population with bulging phenotype at 4XMIC measured after 1 hr by phase contrast microscopic analysis; type: functional
[15] = system: Enterococcus faecium; assay: Antibacterial activity against Enterococcus faecium assessed as inhibition of bacterial growth incubated for 20 hrs by CLSI broth microdilution method; type: functional
[16] = system: Bacillus subtilis; assay: Induction of phenotypic changes in Bacillus subtilis 168 assessed as disruption of peptidoglycan synthesis by measuring inconsistency in NADA stain distribution throughout the cell at 4XMIC measured after 60 mins by NADA staining based fluorescent microscopy; type: functional
[17] = Induction of phenotypic changes in Bacillus subtilis 168 assessed as abundance of ghost cells at 4XMIC measured after 1 hr by phase contrast microscopic analysis; type: functional
[18] = system: 3T3-L1; assay: Cytotoxicity against mouse 3T3-L1 cells assessed as reduction in cell viability at 25 ug/ml measured after 24 to 72 hrs by MTT assay; type: toxicity, cell-based; conditions: time 24-72 hrs, dose 25 µg/ml
[19] = system: Acinetobacter baylyi; assay: Antibacterial activity against Acinetobacter baylyi assessed as inhibition of bacterial growth incubated for 20 hrs by CLSI broth microdilution method; type: functional
[20] = system: Bacillus subtilis; assay: Induction of phenotypic changes in Bacillus subtilis 168 assessed as bacterial population with localized swelling at 4XMIC measured after 1 hr by phase contrast microscopic analysis; type: functional
[21] = system: Staphylococcus aureus; assay: Antibacterial activity against Staphylococcus aureus ATCC 25923 assessed as inhibition of bacterial growth measured after repeated 30 day serial passage treatment by broth microdilution method; type: functional, organism-based

| SMILES | MIC95 [1] | MIC95 [2] | MIC95 [3] | other results |
| --- | --- | --- | --- | --- |
| COc1cc2c(cc1OC)C[N+](Cc1cn(-c3ccc(-c4ccccc4)cc3)nn1)(Cc1cn(-c3ccc(-c4ccccc4)cc3)nn1)CC2 | > 128 µg/mL | 32 µg/mL | – | – |
| COc1cc2c(cc1OC)C[N+](Cc1cn(-c3ccc(C#N)cc3)nn1)(Cc1cn(-c3ccc(C#N)cc3)nn1)CC2 | > 128 µg/mL | > 128 µg/mL | > 128 µg/mL | – |
| COc1cc2c(cc1OC)C[N+](Cc1cn(-c3ccc(C(=O)N(C)C)cc3)nn1)(Cc1cn(-c3ccc(C(=O)N(C)C)cc3)nn1)CC2 | > 128 µg/mL | > 128 µg/mL | > 128 µg/mL | – |
| COc1ccc(-n2cc(C[N+]3(Cc4cn(-c5ccc(OC)cc5)nn4)CCc4cc(OC)c(OC)cc4C3)nn2)cc1 | > 128 µg/mL | > 128 µg/mL | > 128 µg/mL | – |
| COc1cc2c(cc1OC)C[N+](Cc1cn(-c3ccc(OCc4ccccc4)c(F)c3)nn1)(Cc1cn(-c3ccc(OCc4ccccc4)c(F)c3)nn1)CC2 | > 128 µg/mL | 4 µg/mL | 4 µg/mL | viability at 25 ug/ml [4]: > 85%; Activity [5]: Non-Toxic; Activity [6]: Active; Activity [7]: Active |
| COc1cc2c(cc1OC)C(Cc1ccccc1)[N+](Cc1cn(-c3ccc(C(C)(C)C)cc3)nn1)(Cc1cn(-c3ccc(C(C)(C)C)cc3)nn1)CC2 (centres undefined) | > 128 µg/mL | 2 µg/mL | – | Activity [8]: Toxic |
| COc1cc2c(cc1OC)C[N+](Cc1cn(-c3ccc(COc4ccccc4)cc3)nn1)(Cc1cn(-c3ccc(COc4ccccc4)cc3)nn1)CC2 | > 128 µg/mL | 32 µg/mL | 32 µg/mL | – |
| COc1cc2c(cc1OC)C[N+](Cc1cn(-c3cc(C(F)(F)F)cc(C(F)(F)F)c3)nn1)(Cc1cn(-c3cc(C(F)(F)F)cc(C(F)(F)F)c3)nn1)CC2 | > 128 µg/mL | 8 µg/mL | > 128 µg/mL | – |
| COc1cc2c(cc1OC)C[N+](Cc1cn(-c3ccc(C(C)(C)C)cc3)nn1)(Cc1cn(-c3ccc(C(C)(C)C)cc3)nn1)CC2 | > 128 µg/mL | 4 µg/mL | 4 µg/mL | MIC [9]: 6 µg/mL; MIC95 [10]: 8 µg/mL; inhibition at 50 ug/ml [11]: 89%; inhibition at 20 µM [12]: > 90%; MIC95 [13]: 128 µg/mL; Activity [14]: 10%; Activity [6]: Active; MIC95 [15]: 8 µg/mL; Activity [7]: Active; Activity [16]: Active; Activity [17]: >50%; Activity [18]: Toxic; MIC95 [19]: 128 µg/mL; Activity [20]: 20%; Activity [21]: Active |
| COc1cc2c(cc1OC)C[N+](Cc1cn(-c3ccoc3)nn1)(Cc1cn(-c3ccoc3)nn1)CC2 | > 128 µg/mL | > 128 µg/mL | > 128 µg/mL | – |
| COc1cc2c(cc1OC)C[N+](Cc1cn(-c3ccccc3)nn1)(Cc1cn(-c3ccccc3)nn1)CC2 | > 128 µg/mL | > 128 µg/mL | – | – |
| COc1cc2c(cc1OC)C[N+](Cc1cn(-c3ccc(Cl)nc3Cl)nn1)(Cc1cn(-c3ccc(Cl)nc3Cl)nn1)CC2 | > 128 µg/mL | > 128 µg/mL | > 128 µg/mL | – |
| COc1cc2c(cc1OC)C[N+](Cc1cn(-c3ccc(Cl)cc3)nn1)(Cc1cn(-c3ccc(Cl)cc3)nn1)CC2 | > 128 µg/mL | 32 µg/mL | 32 µg/mL | – |
| COc1cc2c(cc1OC)C[N+](Cc1cn(-c3ccc(C(F)(F)F)cc3C(F)(F)F)nn1)(Cc1cn(-c3ccc(C(F)(F)F)cc3C(F)(F)F)nn1)CC2 | > 128 µg/mL | 32 µg/mL | 32 µg/mL | – |
| COc1cc2c(cc1OC)C[N+](Cc1cn(-c3ccc(OCc4ccccc4)cc3F)nn1)(Cc1cn(-c3ccc(OCc4ccccc4)cc3F)nn1)CC2 | > 128 µg/mL | 4 µg/mL | 4 µg/mL | Activity [6]: Active; Activity [7]: Active; Activity [18]: Toxic |
| COc1cccc(CC2c3cc(OC)c(OC)cc3CC[N+]2(Cc2cn(-c3ccc(C(C)(C)C)cc3)nn2)Cc2cn(-c3ccc(C(C)(C)C)cc3)nn2)c1 (centres undefined) | > 128 µg/mL | 4 µg/mL | – | Activity [8]: Toxic |
| COc1cc2c(cc1OC)C[N+](Cc1cn(-c3ccc4ccccc4c3)nn1)(Cc1cn(-c3ccc4ccccc4c3)nn1)CC2 | > 128 µg/mL | 32 µg/mL | 32 µg/mL | – |
| COc1cc2c(cc1OC)C[N+](Cc1cn(-c3ccc([N+](=O)[O-])cc3)nn1)(Cc1cn(-c3ccc([N+](=O)[O-])cc3)nn1)CC2 | > 128 µg/mL | > 128 µg/mL | > 128 µg/mL | – |

Source: ChEMBL document CHEMBL5131487, “Synthesis and biological evaluation of tetrahydroisoquinoline-derived antibacterial compounds” (Bioorg Med Chem, 2022)
